Biological target: T1, His6 tagged human recombinant FABP4 (Homo sapiens, UniProt P15090)
T1 construct: purchased Cayman Chemicals 10009549
Experiment: FABP4 TR-FRET assay: displacement of BODIPY FL C12 fatty acid
Settings: triplicates, inhibition of BODIPY FL C12 binding; for inhibition at 1 µM: 1 μM compound; for inhibition at 10 µM: 10 μM compound
Text: Activity of compounds with FABP4 was profiled using a Terbium (Tb) based time resolved fluorescence energy transfer (TR-FRET) assay. The assay measures the compound mediated displacement of the fluorescent fatty acid BODIPY FL C12 (Thermo Fisher; catalog number D3822) from His6 tagged human recombinant FABP4 (His6-FABP4; Cayman Chemicals, catalog number 10009549) via recording the energy transfer from TB donor molecule on anti-His6-tag antibody to acceptor BODIPY moiety. Briefly, compounds were prepared at a concentration of 0.362 mM and 0.0362 mM, and BODIPY FL C12 was prepared at 4.2 μM, in DMSO. 1.2 μL of each compound or DMSO (vehicle control) and 1.2 μL of BODIPY FL C12 were added into the wells of a 384-well black polypropylene plate. His6-FABP4 and Tb anti-His6 antibody were prepared in the assay buffer (25 mM Tris/HCl, pH 7.4, 0.4 mg/ml y-globulins, 0.010% NP-40, 1 mM DTT) at a concentration of 83 nM and 49.6 nM, respectively. The protein and antibody solutions were then mixed at a ratio of 34:7 (v/v) and incubated on ice for 30 minutes. The assay was initiated by adding 41 μL of the resulting protein/antibody solution into the wells containing the compounds and BODIPY FL C12. The plate was centrifuged and incubated at room temperature for 10 min. The TR-FRET signals were recorded using an EnVision Multilabel plate reader (PerkinElmer; TB excitation 320 nm, BODIPY FL C12 emission 520 nm; TB emission 615 nm). Relative fluorescence ratio (520 nm*10,000/615 nm) were used to calculate the compound mediated inhibition of BODIPY C12 FL fatty acid binding to FABP4. […] Glucose consumption and FABP4 inhibition is shown below in Table 3 below.

T1 sequence (P15090 whole entry): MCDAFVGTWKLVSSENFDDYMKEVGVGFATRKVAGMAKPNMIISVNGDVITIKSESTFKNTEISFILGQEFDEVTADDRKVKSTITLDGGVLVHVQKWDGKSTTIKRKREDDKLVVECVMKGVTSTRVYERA

Compound: CCCCC1CCCc2c1n(Cc1cccc(C(N)=O)c1)c1c(C(=O)O)cccc21 (centres unmarked) [1-butyl-9-[(3-carbamoylphenyl)methyl]-2,3,4,9-tetrahydro-1H-carbazole-8-carboxylic acid]
- inhibition at 1 µM: 83%
- inhibition at 10 µM: 86.2%

Compound: CCCCC1CCCc2c1n(Cc1cccc(C#N)c1)c1c(C(=O)O)cccc21 (centres unmarked) [1-butyl-9-[(3-cyanophenyl)methyl]-2,3,4,9-tetrahydro-1H-carbazole-8-carboxylic acid]
- inhibition at 1 µM: 58%
- inhibition at 10 µM: 93.7%

Compound: CCCCC1CCCc2c(n(Cc3cccc(C(N)=O)c3)c3c(C(=O)NCC(=O)O)cccc23)C1 (centres unmarked) [2-({7-butyl-5-[(3-carbamoylphenyl)methyl]-5H,6H,7H,8H,9H,10H-cyclohepta[b]indol-4-yl}formamido)acetic acid]
- inhibition at 1 µM: 59%
- inhibition at 10 µM: 90.2%

Compound: CCCCC1CCCc2c(n(Cc3cccc(C#N)c3)c3c(C(=O)NCC(=O)O)cccc23)C1 (centres unmarked) [2-({7-butyl-5-[(3-cyanophenyl)methyl]-5H,6H,7H,8H,9H,10H-cyclohepta[b]indol-4-yl}formamido)acetic acid]
- inhibition at 1 µM: 8.61%
- inhibition at 10 µM: 41%

Compound: CCCCC1Cc2c(n(Cc3cccc(C(N)=O)c3)c3c(C(=O)O)cccc23)C1 (centres unmarked) [2-butyl-4-[(3-carbamoylphenyl)methyl]-1H,2H,3H,4H-cyclopenta[b]indole-5-carboxylic acid]
- inhibition at 1 µM: 87.2%
- inhibition at 10 µM: 95.2%

Compound: CCCCC1Cc2c(n(Cc3cccc(C#N)c3)c3c(C(=O)O)cccc23)C1 (centres unmarked) [2-butyl-4-[(3-cyanophenyl)methyl]-1H,2H,3H,4H-cyclopenta[b]indole-5-carboxylic acid]
- inhibition at 1 µM: 62.1%
- inhibition at 10 µM: 85.1%

Compound: CCCCC1CCc2c(n(Cc3cccc(C(N)=O)c3)c3c(C(=O)O)cccc23)C1 (centres unmarked) [2-butyl-9-[(3-carbamoylphenyl)methyl]-2,3,4,9-tetrahydro-1H-carbazole-8-carboxylic acid]
- inhibition at 1 µM: 88.5%
- inhibition at 10 µM: 95.5%

Compound: CCCCCCC1CCc2c(n(Cc3ccnc(OC)c3)c3c(C(=O)O)cccc23)C1 (centres unmarked) [2-hexyl-9-[(2-methoxypyridin-4-yl)methyl]-2,3,4,9-tetrahydro-1H-carbazole-8-carboxylic acid]
- inhibition at 1 µM: 44.2%
- inhibition at 10 µM: 77.8%

Compound: CCCCCCC1CCc2c(n(Cc3ccccc3C)c3c(C(=O)O)cccc23)C1 (centres unmarked) [2-hexyl-9-[(2-methylphenyl)methyl]-2,3,4,9-tetrahydro-1H-carbazole-8-carboxylic acid]
- inhibition at 1 µM: 87.4%
- inhibition at 10 µM: 83.2%

Compound: CCCCCCC1CCc2c(n(Cc3cccc(O)c3)c3c(C(=O)O)cccc23)C1 (centres unmarked) [2-hexyl-9-[(3-hydroxyphenyl)methyl]-2,3,4,9-tetrahydro-1H-carbazole-8-carboxylic acid]
- inhibition at 1 µM: 77.9%
- inhibition at 10 µM: 93.1%

Compound: CCCCCCC1CCc2c(n(Cc3ccc(C)cc3)c3c(C(=O)O)cccc23)C1 (centres unmarked) [2-hexyl-9-[(4-methylphenyl)methyl]-2,3,4,9-tetrahydro-1H-carbazole-8-carboxylic acid]
- inhibition at 1 µM: 74.3%
- inhibition at 10 µM: 88.5%

Compound: CCCCC1CCc2c1n(Cc1cccc(C(N)=O)c1)c1c(C(=O)O)cccc21 (centres unmarked) [3-butyl-4-[(3-carbamoylphenyl)methyl]-1H,2H,3H,4H-cyclopenta[b]indole-5-carboxylic acid]
- inhibition at 1 µM: 96.8%
- inhibition at 10 µM: 98.5%

Compound: CCCCC1CCc2c1n(Cc1cccc(C#N)c1)c1c(C(=O)O)cccc21 (centres unmarked) [3-butyl-4-[(3-cyanophenyl)methyl]-1H,2H,3H,4H-cyclopenta[b]indole-5-carboxylic acid]
- inhibition at 1 µM: 85.1%
- inhibition at 10 µM: 98.5%

Compound: CCCCC1CCc2c(c3cccc(C(=O)O)c3n2Cc2cccc(C(N)=O)c2)C1 (centres unmarked) [3-butyl-9-[(3-carbamoylphenyl)methyl]-2,3,4,9-tetrahydro-1H-carbazole-8-carboxylic acid]
- inhibition at 1 µM: 92.4%
- inhibition at 10 µM: 97.2%

Compound: CCCCC1CCc2c(c3cccc(C(=O)O)c3n2Cc2cccc(C#N)c2)C1 (centres unmarked) [3-butyl-9-[(3-cyanophenyl)methyl]-2,3,4,9-tetrahydro-1H-carbazole-8-carboxylic acid]
- inhibition at 1 µM: 35.8%
- inhibition at 10 µM: 81.1%

Compound: CCCCCC1Cc2c(n(Cc3cccc(C(N)=O)c3)c3c(C(=O)O)cccc23)C1 (centres unmarked) [4-[(3-carbamoylphenyl)methyl]-2-pentyl-1H,2H,3H,4H-cyclopenta[b]indole-5-carboxylic acid]
- inhibition at 1 µM: 86.9%
- inhibition at 10 µM: 93.1%

Compound: CCC1CCc2c1n(Cc1cccc(C(N)=O)c1)c1c(C(=O)O)cccc21 (centres unmarked) [4-[(3-carbamoylphenyl)methyl]-3-ethyl-1H,2H,3H,4H-cyclopenta[b]indole-5-carboxylic acid]
- inhibition at 1 µM: 87.3%
- inhibition at 10 µM: 102%

Compound: CCCC1CCc2c1n(Cc1cccc(C(N)=O)c1)c1c(C(=O)O)cccc21 (centres unmarked) [4-[(3-carbamoylphenyl)methyl]-3-propyl-1H,2H,3H,4H-cyclopenta[b]indole-5-carboxylic acid]
- inhibition at 1 µM: 89.1%
- inhibition at 10 µM: 95.3%

Compound: CCCCCC1Cc2c(n(Cc3cccc(C#N)c3)c3c(C(=O)O)cccc23)C1 (centres unmarked) [4-[(3-cyanophenyl)methyl]-2-pentyl-1H,2H,3H,4H-cyclopenta[b]indole-5-carboxylic acid]
- inhibition at 1 µM: 39.5%
- inhibition at 10 µM: 78.3%

Compound: CCC1CCc2c1n(Cc1cccc(C#N)c1)c1c(C(=O)O)cccc21 (centres unmarked) [4-[(3-cyanophenyl)methyl]-3-ethyl-1H,2H,3H,4H-cyclopenta[b]indole-5-carboxylic acid]
- inhibition at 1 µM: 54.8%
- inhibition at 10 µM: 86.2%

Compound: CCCC1CCc2c1n(Cc1cccc(C#N)c1)c1c(C(=O)O)cccc21 (centres unmarked) [4-[(3-cyanophenyl)methyl]-3-propyl-1H,2H,3H,4H-cyclopenta[b]indole-5-carboxylic acid]
- inhibition at 1 µM: 67.8%
- inhibition at 10 µM: 97.6%

Compound: CCCCC1CCCc2c1c1cccc(C(=O)O)c1n2Cc1cccc(C(N)=O)c1 (centres unmarked) [4-butyl-9-[(3-carbamoylphenyl)methyl]-2,3,4,9-tetrahydro-1H-carbazole-8-carboxylic acid]
- inhibition at 1 µM: 43.3%
- inhibition at 10 µM: 83.4%

Compound: CCCCC1CCCc2c1c1cccc(C(=O)O)c1n2Cc1cccc(C#N)c1 (centres unmarked) [4-butyl-9-[(3-cyanophenyl)methyl]-2,3,4,9-tetrahydro-1H-carbazole-8-carboxylic acid]
- inhibition at 1 µM: 25.3%
- inhibition at 10 µM: 65.5%

Compound: CCCCCCC1CCCc2c(n(C(=O)c3cccc(C#N)c3)c3c(C(=O)O)cccc23)C1 (centres unmarked) [5-(3-cyanobenzoyl)-7-hexyl-5H,6H,7H,8H,9H,10H-cyclohepta[b]indole-4-carboxylic acid]
- inhibition at 1 µM: 87.1%
- inhibition at 10 µM: 88.5%

Compound: CCCCCCC1CCCc2c(n(Cc3ccc4ocnc4c3)c3c(C(=O)O)cccc23)C1 (centres unmarked) [5-[(1,3-benzoxazol-5-yl)methyl]-7-hexyl-5H,6H,7H,8H,9H,10H-cyclohepta[b]indole-4-carboxylic acid]
- inhibition at 10 µM: 88.5%

Compound: CCCCCCC1CCCc2c(n(Cc3ccc4ncoc4c3)c3c(C(=O)O)cccc23)C1 (centres unmarked) [5-[(1,3-benzoxazol-6-yl)methyl]-7-hexyl-5H,6H,7H,8H,9H,10H-cyclohepta[b]indole-4-carboxylic acid]
- inhibition at 1 µM: 101%
- inhibition at 10 µM: 94.9%

Compound: CCCCCCC1CCCc2c(n(Cc3cccc4ncoc34)c3c(C(=O)O)cccc23)C1 (centres unmarked) [5-[(1,3-benzoxazol-7-yl)methyl]-7-hexyl-5H,6H,7H,8H,9H,10H-cyclohepta[b]indole-4-carboxylic acid]
- inhibition at 1 µM: 92%
- inhibition at 10 µM: 95.3%

Compound: CCCCCCC1CCCc2c(n(Cc3ccccc3C(N)=O)c3c(C(=O)O)cccc23)C1 (centres unmarked) [5-[(2-carbamoylphenyl)methyl]-7-hexyl-5H,6H,7H,8H,9H,10H-cyclohepta[b]indole-4-carboxylic acid]
- inhibition at 1 µM: 79.2%
- inhibition at 10 µM: 82%

Compound: CCCCCCC1CCCc2c(n(Cc3ccccc3C#N)c3c(C(=O)O)cccc23)C1 (centres unmarked) [5-[(2-cyanophenyl)methyl]-7-hexyl-5H,6H,7H,8H,9H,10H-cyclohepta[b]indole-4-carboxylic acid]
- inhibition at 10 µM: 88.6%

Compound: CCCCCCC1CCCc2c(n(Cc3ccccc3F)c3c(C(=O)O)cccc23)C1 (centres unmarked) [5-[(2-fluorophenyl)methyl]-7-hexyl-5H,6H,7H,8H,9H,10H-cyclohepta[b]indole-4-carboxylic acid]
- inhibition at 1 µM: 77.5%
- inhibition at 10 µM: 87.3%

Compound: CCCCCCC1CCCc2c(n(Cc3ccnc(F)c3)c3c(C(=O)O)cccc23)C1 (centres unmarked) [5-[(2-fluoropyridin-4-yl)methyl]-7-hexyl-5H,6H,7H,8H,9H,10H-cyclohepta[b]indole-4-carboxylic acid]
- inhibition at 1 µM: 92.8%
- inhibition at 10 µM: 90.4%

Compound: CCCCCCC1CCCc2c(n(Cc3c(C)noc3C)c3c(C(=O)O)cccc23)C1 (centres unmarked) [5-[(3,5-dimethyl-1,2-oxazol-4-yl)methyl]-7-hexyl-5H,6H,7H,8H,9H,10H-cyclohepta[b]indole-4-carboxylic acid]
- inhibition at 1 µM: 79.8%
- inhibition at 10 µM: 95.6%

From patent US12084419B2, “Cell metabolism modulating compounds and uses thereof” (CRESCENTA BIOSCIENCES, priority 2020, dated 2024)
